This note sets out measurements from patent US11180744B2, “Acinetobacter lysins” (priority 2014, dated 2021).

The subject of data set [1] is A. baumannii strains #1791 and ATCC17978. The data set is described as follows: microbe, parasite or virus in culture. As to conditions: Acinetobacter baumannii, ATCC17978, 24 h, 37° C.
A further data set is described as follows: in vitro. The format is cell-based. As to conditions: B cell line.
A further data set deals with B cell line. Nature of the data set: in vitro. The format is cell-based.
For another data set, the system named is red blood cells (RBC). The data set is described as follows: Hemolysis, release of hemoglobin (OD405). As to conditions: 80-0.3125 μM; 1 hour at 37° C.; Triton X-100 positive control.
The subject of a further data set is Human B-cells. Nature of the data set: B cell survival, CellTiter 96 Non-Radioactive Cell Proliferation Assay. As to conditions: highest concentration tested (80 μM); 1 hr at 37° C.
Data set [2] has as its system A. baumannii strains #1791, S5 and ATCC17978. The data set is described as follows: In vitro bactericidal activities of peptides (Example 10). The format is cell-based.
Data set [3] concerns A. baumannii strains #1791 and ATCC17978. As to conditions: Mueller-Hinton broth (pH 7.9), 37° C., 24 hour.
Data set [4] deals with A. baumannii strain 1791 biofilm. The data set is described as follows: Mouse catheter model. The conditions noted are these: 250 μl of F307 (1 mg) injected into catheter under the dermis, repeated after 4 hours. In kind it is in vivo, BALB/C mice. The method, then: Mouse Catheter Model: Several 3 inch section of catheter tubing were seeded (1:1000) with A. baumannii strain 1791. A. baumannii biofilms were formed as described above. The back of twenty BALB/C mice were shaved, their backs were sterilized, and then an incision was made to place a 1 inch section of the catheter with a biofilm already formed under the dermis of the back. The incisions were then stapled shut. After 24 hours, 250 μl of F307 (1 mg) (n=10) or 250 μl control vehicle (n=10) was injected directly into the catheter that was under the dermis of the mouse. The treatment was repeated after 4 hours. After 3 hours the catheters were removed from the mice, and assayed as described in Experiment 4.

For the next data set, the system named is A. baumannii. The data set is described as follows: Survival of mice after lethal injection of A. baumannii. The conditions noted are these: 1 mg of F307 IP two hours after 10^8 CFU IP; 14 days after infection. In kind it is in vivo, C57BL/6 mice. Here is the method:
Twenty-two C57BL/6 mice were given 10^8 CFU of A. baumannii strain intraperitoneally (IP). Two hours later, two mice were euthanized and organs examine as described below, ten mice injected IP with 1 mg of F307 and ten mice were injected IP with control vehicle.

The subject of data set [5] is A. baumannii clinical isolates. Nature of the data set: Crude lysate clearing zones on A. baumannii soft agar plates. The conditions noted are these: thirteen A. baumannii clinical isolates.
In data set [6] the test system is A. baumannii 1791 biofilm. Nature of the data set: In vitro treatment of catheter adherent A. baumannii 1791 biofilm with F307.
Where [7] appears, read: pH 7.9, strain #1791, Mueller-Hinton broth (pH 7.9).
[8] abbreviates: pH 7.9, strain ATCC17978, Mueller-Hinton broth (pH 7.9).

Where “and” joins values, the source holds several entries; their conditions need not be identical. Identical values can stand only once. Like-named read-outs stand apart in the source and are kept apart here. Where no end group is shown, it is not given here.

With `CC(C)(O/N=C(\C(=O)N[C@@H]1C(=O)N2C(C(=O)[O-])=C(C[n+]3ccccc3)CS[C@H]12)c1csc(N)n1)C(=O)O` [Ceftazidime], the MIC was 250 µg/mL and 457 µM in data set [1] (setting [7]); 12 µg/mL and 21.9 µM in [1] (setting [8]).
Take `C[C@H]1COc2c(N3CCN(C)CC3)c(F)cc3c(=O)c(C(=O)O)cn1c23` [Levofloxacin]: the MIC in [1] (setting [7]) was 6 µg/mL and 16.6 µM; in data set [1] (setting [8]), ≤ 0.1 µg/mL and 0.3 µM.
In the data set “in vitro”, NAKDYKGAAAEFPKWNKAGGRVLAGLVKRRK [P307] yielded a viability at 5 min, 2 μg of 95.2%; a viability at 5 min, 20 μg of 97.2%; a viability at 5 min, 200 μg of 94.6%; a viability at 0.5 h, 2 μg of 76.9%. In “in vitro”, this molecule registered a viability at 0.5 h, 20 μg of 88.6%; a viability at 1 h, 2 μg of 89.3%; a viability at 1 h, 20 μg of 89.7%; a viability at 1 h, 200 μg of 71.4%. Further, in the data set “in vitro”, the viability at 2 h, 2 μg worked out at 92.5%; the viability at 2 h, 20 μg came to 90.3%; the viability at 2 h, 200 μg was 71.9%; the viability at 3 h, 2 μg was found to be 93.8%. Moreover, in “in vitro”, the viability at 3 h, 20 μg was determined as 91%; the viability at 3 h, 200 μg stood at 58.6%; the viability at 24 h, 2 μg was 96.3%; the viability at 24 h, 20 μg is 94.2%. For the same molecule, the viability at 24 h, 200 μg in the data set “in vitro” worked out at 76.3%. Further, in the data set on B cell line, the “effect on cell number of a B cell line” value is on record as “only a slight effect on cell number”.
Consider “NAKDYKGAAAEFPKWNKAGGRVLAGLVKRRKSQSRESQC [P307SQ-8C]”, for which the “integrity of RBCs (hemolysis)” value in the data set with red blood cells (RBC) is listed as “not affected”. The “viability of B cells” value in the data set with Human B-cells is on record as “remains the same as the buffer control”.
Take “P307AE-8: SEQ ID NO: 49: NAKDYKGAAAEFPKWNKAGGRVLAGLVKRRKAEMELFLK (P307AE-8)”: in [2] (50 μg/mL, 2 hours, room temperature), the “decrease in viable bacteria” value was roughly 3.8 log-unit.
As to “P307CS-8: SEQ ID NO: 51: NAKDYKGAAAEFPKWNKAGGRVLAGLVKRRKCSQRQSES (P307CS-8)”, in [2] (scrambled last eight amino acids), the “activity of P307CS-8 compared with P307SQ-8C” value is recorded as “comparable”.
Polymyxin B [reference compound]: the MIC in data set [3] (strain #1791) was 0.25 μg/mL and 0.19 μM; in [3] (strain ATCC17978) it was 0.25 μg/mL and 0.19 μM.
For the molecule SQSRESQC (Ex) [reference compound], in data set [2] (strains #1791 and S5, same molar concentration as 50 μg/mL P307), the “bactericidal activity of SQSRESQC alone or combined with P307” value is recorded as “no activity”.

B1: F307: phage lysin polypeptide, SEQ ID NO: 1, 16 kDa (protein, listed as Acinetobacter baumannii)
chain: VKTSNPGVDLIKGFEGLRLKAYDDGVGVWTIGFGTIKYPNGVRVKKGDTCTESQAEEYLRNDLVVFESAINRLVKVPLNQNQFDALASFTYNLGEGNLSISTLLKKLNAKDYKGAAAEFPKWNKAGGRVLAGLVKRRKAEMELFLK
With B1, the “reduction of bacterial counts compared with control” value in [4] is on record as “approximately 2 logs”. This molecule also displayed a survival in the data set with A. baumannii of 50%. The “percent of Acinetobacter strains lysed” value in [5] was “about 90%”. The “drop in the number of colony forming units” value in data set [6] (3-day biofilm on catheter, after 30 minutes of treatment) was roughly 4 log. Moreover, the CFU in [6] (15 minutes F307 treatment) is reported as 9.0 × 10^4 CFU; in data set [6] (30 minutes F307 treatment), 6.0 × 10^3 CFU.

By viability is commonly meant a read-out of living cells in per cent, often relative to untreated cells. A higher viability goes with better survival.
